Measurements published in paper PMC12264943, “Identification of New Human P2X7 Antagonists Using Ligand- and Structure-Based Virtual Screening” (Journal of Chemical Information and Modeling, 2025).
Entries after “also recorded” stand apart in the source; their conditions may differ.

Tests used:
Type in all cases: cell-based
[1] = target: T1, hP2X7 (Homo sapiens, UniProt Q99572); assay: YO-PRO 1 dye uptake assay, HEK-293 cells stably transfected with hP2X7; settings: for reduction of hP2X7 activity / hP2X7 inhibition in YO-PRO 1 dye uptake, SAR: analogues at 10 μM; for reduction of hP2X7 activity: YO-PRO 1, 1 mM ATP, 0.1% DMSO; for hP2X7 inhibition in YO-PRO 1 dye uptake, SAR: 1 mM ATP; for IC50: Table 1, table names no assay, values of 2 and 9 are from YO-PRO 1 dye uptake in hP2X7 HEK-293 cells, read-out: IC50
T1 construct: expressed in transfected cells; host or cells: HEK-293, stably transfected (gift of E. Adinolfi's group, Ferrara University)
T1 sequence (Q99572 1-595): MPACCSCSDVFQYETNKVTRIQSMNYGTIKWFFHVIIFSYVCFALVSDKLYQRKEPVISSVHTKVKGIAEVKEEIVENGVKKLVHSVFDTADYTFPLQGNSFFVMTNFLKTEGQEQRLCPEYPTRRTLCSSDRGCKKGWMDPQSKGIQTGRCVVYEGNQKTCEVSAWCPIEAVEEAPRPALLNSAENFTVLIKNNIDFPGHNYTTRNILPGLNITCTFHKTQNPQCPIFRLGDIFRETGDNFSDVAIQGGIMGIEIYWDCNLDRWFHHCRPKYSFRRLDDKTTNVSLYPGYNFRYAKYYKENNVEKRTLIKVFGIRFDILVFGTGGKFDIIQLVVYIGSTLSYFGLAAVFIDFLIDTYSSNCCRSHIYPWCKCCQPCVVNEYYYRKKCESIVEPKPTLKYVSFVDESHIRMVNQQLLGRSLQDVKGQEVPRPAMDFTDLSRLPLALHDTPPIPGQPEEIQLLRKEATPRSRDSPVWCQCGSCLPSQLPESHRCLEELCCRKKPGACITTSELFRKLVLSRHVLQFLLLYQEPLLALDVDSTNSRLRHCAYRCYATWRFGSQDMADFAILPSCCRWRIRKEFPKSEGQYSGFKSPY
Method: (§1) Astrocytoma 1321 N1 (established by Dr. Gaia Pasqualetto) and HEK-293 (kindly gifted by E. Adinolfi’s group, Ferrara University) both stably transfected with hP2X7, were used to assess the activity of the small molecules selected from the VS. Cells were maintained in DMEM:F12 (PanBiotech) supplemented with 10% FBS, 1% pen-strep, and 150 μg/mL G418 (PanBiotech).
(§2) Astrocytoma 1321 N1 cells (2–2.5 × 10^4 cells/well) and HEK-293 cells (4–5 × 10^4 cells/well) expressing hP2X7 were seeded in poly-L-lysine-coated 96-well plates (Sarstedt) 24 h before the experiment. YO-PRO 1 dye was prepared at 5 μM in extracellular solution with low divalent cations (ECS-LD) buffer (147 mM NaCl, 10 mM HEPES, 13 mM glucose, 0.2 mM CaCl2, 2 mM KCl, pH 7.4) and added to cells after washing them with Dulbecco’s phosphate- buffered saline (DPBS) (PanBiotech) and incubated for 20 min at 37 °C. ATP-induced dye uptake, mediated by hP2X7 activation, was monitored using a Clariostar plate reader (excitation: 485 nm; emission: 538 nm) for 30 cycles (75–150 s/cycle), after recording the baseline for five cycles. hP2X7 activation was quantified at cycle 10 by calculating the fluorescence intensity (FI) ratio (Δ(Fcycle 10–F cycle 1)/cycle time).
Compounds 2 and 9, identified as hits, were further evaluated for concentration-dependent inhibition (IC50) of hP2X7 activation in the YO-PRO 1 dye uptake assay using HEK-293 cells stably transfected with hP2X7 (unfortunately, at this point in the study, the stably transfected 1321N1 cells lost P2X7 expression, and we were unable to recover them from frozen aliquots), for which the ATP EC50 was determined to be approximately 1 mM (Supporting material Figure 4C). Seven concentrations (100 to 0.03 μM) were tested, but due to precipitation at 100 μM, the DMSO concentration was increased to 1%.
3 Inhibitory concentration response evaluation of compounds 2 and 9 and their groups highlighted for SAR. […] Compound activity was evaluated along a time of 20 min (75 s per cycle) after ATP addition (700 μM). The fluorescence intensity (FI) values of the first 10 cycles were considered for assessing their ability to inhibit hP2X7. The curves represent three biological replicates (n = 4 per replicate). Data were normalized by setting as 100% the FI recorded by hP2X7 HEK-293 cells incubated in 1% DMSO and stimulated by ATP, and as 0% the FI recorded by the same cells but treated with ECS-LD (assay buffer). (C) Highlighted areas of compound 2 considered for SAR study. R1 refers to the ethyl-benzyl group of the molecules, and R2 and R3 refer to the benzo-(1,3)-dioxol groups. (D) Highlighted areas of compound 9 considered for SAR study. We have defined the area highlighted in yellow and numbered as 1 as the “front” region of the molecule and the one colored in pink and named as 2 as the “back” region of the molecule. L highlights the urea and amide linkers of compounds 2 and 9, respectively.
4 Evaluation of compound 2 and 9 analogue activity using YO-PRO 1 and MPR assays. The activity of compound 2 (A and B) and 9 (C and D) analogues was evaluated in YO-PRO 1 (A and C) and MPR (B and D) assays. The compounds were tested at 10 μM and preincubated for either 20 (YO-PRO 1) or 30 min (MPR). The baseline was recorded for 5 cycles before ATP treatment (1 mM). Fluorescence was recorded for 25 (YO-PRO 1) or 5 min (MPR). The data were normalized by setting as 100% for the fluorescence measured from hP2X7 HEK-293 cells incubated with vehicle (0.1% DMSO) and treated with 1 mM ATP and 0% for the fluorescence recorded by the cells not treated with ATP. The data shown correspond to three independent biological replicates (3 technical replicates per experiment; error bars represent the SEM from the mean values of each biological replicate (n = 3)). The statistical analysis was performed with one-way Anova using Dunnett’s function (P**** < 0.0001; P*** < 0.0003; P** < 0.002; P* < 0.02).

[2] = target: T1, hP2X7; assay: YO-PRO 1 dye uptake assay, 1321 N1 cells stably transfected with hP2X7; settings: compound 30 μM, 700 μM ATP; for reduction of P2X7 activation: 0.3% DMSO
Method: as §1, §2
The P2X7 receptor, besides being a ligand-gated ion channel, forms large membrane pores following prolonged exposure to high concentrations of ATP, leading to apoptosis (Mackenzie et al. 2005). The YO-PRO 1 dye uptake assay, which measures dye influx through these pores, was selected as the primary screen. The fluorescence of YO-PRO 1 increases when it binds to DNA, enabling real-time monitoring of P2X7 activation (calculated as the rate of increase in fluorescence as YO-PRO 1 binds nuclear DNA).
The screening compounds were tested at 30 μM (0.3% DMSO) in 5 μM YO-PRO 1 dye diluted in freshly prepared ECS-LD buffer. Cells pretreated with the screening compounds were challenged with 700 μM ATP, and the fluorescence intensities were recorded. The negative control consisted of cells treated with 0.3% DMSO, while the positive control was 0.1 μM JNJ47965567, a selective P2X7 antagonist. ,
(§3) 2 Initial screening assays to identify hit compounds. (A) The compounds were screened at 30 μM in the YO-PRO 1 dye uptake using 1321 N1 cells stably transfected with hP2X7. Compound activity was evaluated along a time of 20 min (75 s per cycle) after ATP addition (700 μM). The fluorescence intensity (FI) values of the first 10 cycles were considered for assessing their ability to inhibit hP2X7. Compound responses were normalized to the fluorescent signal recorded on 0.3% DMSO cells treated with 700 μM ATP of each plate. […] (B) Compounds screened at 10 μM using MPR using 1321 N1 cells stably transfected with hP2X7. The compound activity was evaluated for 5 min after ATP addition (15 s per cycle). The fluorescence intensity recorded in the first cycles (before reaching a plateau response) was considered for assessing the small molecule’s ability to inhibit hP2X7. Compound responses were normalized to the fluorescence signal recorded on 0.1% DMSO cells treated with 700 μM ATP of each plate. […] One-way ANOVA and Dunnet test were used for statistical analysis (****P < 0.0001), (*P < 0.02).

[3] = target: T1, hP2X7; assay: Membrane Potential Red (MPR) dye assay, 1321 N1 cells stably transfected with hP2X7; settings: compound 10 μM, 700 μM ATP
[4] = target: T1, hP2X7; assay: as above; settings: P2X7; compound 10 μM, 700 μM ATP
Method: as §1
Cells were plated as described for the YO-PRO 1 dye uptake assay. MPR dye (Molecular Devices) was prepared following the manufacturer’s protocol and diluted 1:10 in ECS-LD buffer. After washing with DPBS, cells were incubated with the dye for 30 min at 37 °C. Fluorescence changes (excitation: 525 nm; emission: 560 nm) were recorded using a Clariostar plate reader during ATP-induced membrane depolarization. Baseline fluorescence was recorded for 5 cycles, and ATP was added via an automated injector (10 μL). Membrane depolarization was quantified as the ratio of the maximal fluorescence change over baseline intensity (Δ(F max–F0)/F0)).
as §3, with “0.02). […]” for “0.02).”

CCOc1ccc(NC(=O)NC(Cc2ccc(F)cc2)Cc2ccc3c(c2)OCO3)cc1 (stereo not shown) [Compound 2h]
reduction of hP2X7 activity [1]: 80%

CN(C)C(=O)Cn1cc(NC(=O)c2cnc(-c3ccc4c(c3)OCO4)s2)cn1 [Compound 9a]
hP2X7 inhibition in YO-PRO 1 dye uptake, SAR [1]: reduced activity

CN(C)S(=O)(=O)c1cccc(COC(=O)c2cccnc2SCC(=O)Nc2ccc3c(c2)OCO3)c1 [Compound 9h]
hP2X7 inhibition in YO-PRO 1 dye uptake, SAR [1]: activity comparable to that of 9; also recorded: enhanced target inhibition

COc1ccc(CC(Cc2ccc3c(c2)OCO3)NC(=O)Nc2ccc(C)c(F)c2)cc1 (stereo not shown) [Compound 2b]
hP2X7 inhibition in YO-PRO 1 dye uptake, SAR [1]: diminished hP2X7 inhibition

O=C(COC(=O)c1cccnc1SCC(=O)Nc1ccc2c(c1)OCO2)NCc1ccco1 [Compound 9c]
hP2X7 inhibition in YO-PRO 1 dye uptake, SAR [1]: compromised activity

CCOC(=O)c1ccccc1NC(=O)NC(Cc1ccc(OC)cc1)Cc1ccc2c(c1)OCO2 (stereo not shown) [Compound 2e]
hP2X7 inhibition in YO-PRO 1 dye uptake, SAR [1]: diminished hP2X7 inhibition

CNC(=O)NC(Cc1ccc(F)cc1)Cc1ccc2c(c1)OCO2 (stereo not shown) [Compound 2d]
hP2X7 inhibition in YO-PRO 1 dye uptake, SAR [1]: reduced antagonist effects

O=C(Nc1ccc(F)cc1F)NC(Cc1ccc2c(c1)OCO2)Cc1ccc2c(c1)OCO2 [Compound 2c]
reduction of hP2X7 activity [1]: 80%

O=C(CSc1ncccc1C(=O)Nc1ccc(-n2cnnn2)cc1)Nc1ccc2c(c1)OCO2 [Compound 9d]
hP2X7 inhibition in YO-PRO 1 dye uptake, SAR [1]: activity comparable to that of 9

O=C(NCc1ccccc1)NC1(C(=O)NCc2ccccc2Cn2ccnc2)CCCC1 [Compound 8]
IC50 [1]: 4.07 µM
activity in YO-PRO 1 dye uptake screen [2]: antagonist activity
reduction of P2X7 activation [2]: at least 50%
activity in MPR screen, hP2X7-induced membrane depolarization [3]: did not also block

O=C(NCc1ccc(Oc2ccc(F)cc2)cc1)c1ccccc1CN1C(=O)CNC1=O [Compound 4]
inhibition at 10 µM [4]: ~90%
activity in YO-PRO 1 dye uptake screen [2]: no significant activity
activity in MPR screen, hP2X7-induced membrane depolarization [3]: statistically inhibited

CC(C)NC(=O)NC(Cc1ccc2c(c1)OCO2)Cc1ccc2c(c1)OCO2 [Compound 2a]
hP2X7 inhibition in YO-PRO 1 dye uptake, SAR [1]: reduced antagonist effects

COc1cccc(NC(=O)CSc2ccccc2C(=O)NCc2cn3ccccc3n2)c1 [Compound 6]
IC50 [1]: 20.9 µM
activity in YO-PRO 1 dye uptake screen [2]: antagonist activity
reduction of P2X7 activation [2]: at least 50%
activity in MPR screen, hP2X7-induced membrane depolarization [3]: did not also block

COc1ccc(CCNC(=O)Nc2ccc3c(c2)OCO3)cc1OC [Compound 2j]
hP2X7 inhibition in YO-PRO 1 dye uptake, SAR [1]: reduced activity compared to 2

O=C(NCCc1ccc2c(c1)OCO2)NCCN1CCN(c2ccccc2)CC1 [Compound 2f]
hP2X7 inhibition in YO-PRO 1 dye uptake, SAR [1]: reduced activity compared to 2

O=C(CSc1ncccc1C(=O)N1CCN(c2ccccc2F)CC1)Nc1ccc2c(c1)OCO2 [Compound 9e]
hP2X7 inhibition in YO-PRO 1 dye uptake, SAR [1]: activity comparable to that of 9; also recorded: enhanced target inhibition

Cc1nn(-c2ccccc2)c(C)c1NC(=O)NCc1ccccc1Cn1cccn1 [Compound 7]
IC50 [1]: 4.23 µM
activity in YO-PRO 1 dye uptake screen [2]: antagonist activity
reduction of P2X7 activation [2]: at least 50%
activity in MPR screen, hP2X7-induced membrane depolarization [3]: did not also block
